From paper PMC5784245, “An Optimized Synthetic-Bioinformatic Natural Product Antibiotic Sterilizes Multidrug-Resistant Acinetobacter baumannii-Infected Wounds” (mSphere, 2018)
≈ marks a conversion by molar mass, not a printed value. Non-standard residues stand in square brackets, D forms with d. Residues, ends and D or L forms follow the SMILES beside them. dOrn = NCCC[C@@H](N)C(=O)O; Orn = NCCC[C@H](N)C(=O)O

Assays:
C. albicans = experiment: Toxicity assessment, MIC against C. albicans; assay type: cell-based, Candida albicans; settings: Brady lab strain; yeast extract-peptone-dextrose; surrogate for cytotoxicity; duplicate
Experimental: Wang resins were purchased from Matrix Innovation. Reagents for peptide synthesis were purchased from P3 BioSystems, Chempep, and Chem-Impex International. The fluorescent dyes DiBAC4 and SYTOX were purchased from Thermo Fisher Scientific, and media were prepared from premixed powders: brain heart infusion for S. sobrinus and L. rhamnosus (Hardy Diagnostics), yeast extract-peptone-dextrose for C. albicans, lysogeny broth (LB) for all other bacteria (BD Biosciences), and McCoy’s 5A medium with 10% fetal bovine serum for HT-29 cells (American Type Culture Collection). All other chemicals and consumables were purchased from Sigma-Aldrich and VWR International. Paenimucillin 4F for in vivo studies was purchased from Ontores Biotechnologies as a high-performance liquid chromatography (HPLC)-purified peptide and used as is. Dye assays were performed in a Gen5 microtiter plate reader (Biotek Instruments). […]
Standard susceptibility assays were performed in LB medium in 96-well microtiter plates to determine the MIC by the broth microdilution method in accordance with protocols recommended by Clinical and Laboratory Standards Institute ([35]). Cytotoxicity was assessed using human HT-29 cells based on a similar broth microdilution method ([36]). […] Cell viability was determined by visual inspection.

A. baumannii [1] = experiment: Pore formation assay (SYTOX); assay type: cell-based, Acinetobacter baumannii; settings: 4× MIC (8 μg/ml), SYTOX fluorescence
[2] = Rat cutaneous wound model, tolerability; assay type: in vivo, Sprague-Dawley rats; settings: uninfected wounded rats, topical 10 mg/ml
Experimental: The rat cutaneous wound model was used as described previously ([21]). Protocols for animal studies were approved by the Rutgers University Institutional Animal Care and Use Committee. All animals were humanely euthanized at the study endpoint by following the AVMA Guidelines for the Euthanasia of Animals. Immunocompetent Sprague-Dawley female rats (~200 g) were anesthetized by intraperitoneal injection of 100 mg/kg ketamine plus 10 mg/kg xylazine. Using a 1.0-cm-diameter disposable biopsy punch, two symmetrical wounds were created on the dorsum of each rat. A circular gauze dressing 8 mm in diameter was saturated overnight with either vehicle or 4F at 10 mg/ml in sterile centrifuge tubes. To assess tolerability, the rats were weighed daily and observed for wound healing, behavior changes, and visible adverse drug effects for 5 days. To assess efficacy, A. baumannii strain AB5075 was grown overnight and the culture was diluted to provide the challenge inoculum (500 CFU) as 50 μl of bacterial suspension in 0.9% (wt/vol) NaCl. A circular gauze dressing 8 mm in diameter was saturated overnight with vehicle, tetracycline, or 4F at 10 mg/ml in sterile centrifuge tubes. These saturated dressings were topically applied to the wound site with sterile forceps twice daily, starting at 30 min postinoculation, for 6 days. […]

[3] = tested on: MDR A. baumannii strain AB5075; experiment: Rat cutaneous wound model, efficacy; assay type: in vivo, Sprague-Dawley rats; settings: rat wound infected with AB5075 (500 CFU), topical 10 mg/ml twice daily
Experimental: The rat cutaneous wound model was used as described previously ([21]). Protocols for animal studies were approved by the Rutgers University Institutional Animal Care and Use Committee. All animals were humanely euthanized at the study endpoint by following the AVMA Guidelines for the Euthanasia of Animals. Immunocompetent Sprague-Dawley female rats (~200 g) were anesthetized by intraperitoneal injection of 100 mg/kg ketamine plus 10 mg/kg xylazine. Using a 1.0-cm-diameter disposable biopsy punch, two symmetrical wounds were created on the dorsum of each rat. A circular gauze dressing 8 mm in diameter was saturated overnight with either vehicle or 4F at 10 mg/ml in sterile centrifuge tubes. To assess tolerability, the rats were weighed daily and observed for wound healing, behavior changes, and visible adverse drug effects for 5 days. To assess efficacy, A. baumannii strain AB5075 was grown overnight and the culture was diluted to provide the challenge inoculum (500 CFU) as 50 μl of bacterial suspension in 0.9% (wt/vol) NaCl. A circular gauze dressing 8 mm in diameter was saturated overnight with vehicle, tetracycline, or 4F at 10 mg/ml in sterile centrifuge tubes. These saturated dressings were topically applied to the wound site with sterile forceps twice daily, starting at 30 min postinoculation, for 6 days. Rats were observed twice daily for morbidity and possible signs of acute toxicity. Two and four independent cutaneous wounds were tested in tolerability and efficacy assessments, respectively.

A. baumannii [4] = experiment: Membrane depolarization assay (DiBAC4); assay type: cell-based, Acinetobacter baumannii; settings: 4× MIC (8 μg/ml); DiBAC4 fluorescence at endpoint of assay; polymyxin at 4× MIC
Experimental: In a membrane depolarization assay ([31]), A. baumannii colonies were scraped off an agar plate and suspended in LB to optical density at 600 nm (OD600) of 0.5 to 0.6. The resulting suspension (1.8 ml) was mixed 9:1 with DiBAC4 (20 μg/ml), incubated at room temperature for 5 min, and monitored at 2-s intervals (excitation/emission, 492/515 nm) for 2 min. Various solutions were added (10 μl) while the fluorescence signal was continually being monitored. Paenimucillin C was tested at final concentrations of 2× and 4× its MIC, and polymyxin B and DMSO were used as positive and negative controls, respectively. The treated cultures were then monitored at 2-s intervals for another 5 min. Pore formation assays ([32]) were performed in the same way, except that Triton X-100 was used as the positive control at a final concentration of 0.25% (wt/vol).

[5] = tested on: A. baumannii clinical isolate 1795; assay type: cell-based, Acinetobacter baumannii; settings: clinical isolate 1795, 24 h
Experimental: (§1) Wang resins were purchased from Matrix Innovation. Reagents for peptide synthesis were purchased from P3 BioSystems, Chempep, and Chem-Impex International. The fluorescent dyes DiBAC4 and SYTOX were purchased from Thermo Fisher Scientific, and media were prepared from premixed powders: brain heart infusion for S. sobrinus and L. rhamnosus (Hardy Diagnostics), yeast extract-peptone-dextrose for C. albicans, lysogeny broth (LB) for all other bacteria (BD Biosciences), and McCoy’s 5A medium with 10% fetal bovine serum for HT-29 cells (American Type Culture Collection). All other chemicals and consumables were purchased from Sigma-Aldrich and VWR International. Paenimucillin 4F for in vivo studies was purchased from Ontores Biotechnologies as a high-performance liquid chromatography (HPLC)-purified peptide and used as is. Dye assays were performed in a Gen5 microtiter plate reader (Biotek Instruments). Liquid chromatography-mass spectrometry (LC-MS) analyses were performed by using an Acquity system (Waters Corporation).
(§2) Standard susceptibility assays were performed in LB medium in 96-well microtiter plates to determine the MIC by the broth microdilution method in accordance with protocols recommended by Clinical and Laboratory Standards Institute ([35]). Cytotoxicity was assessed using human HT-29 cells based on a similar broth microdilution method ([36]). All assays were performed in duplicate. For the cytotoxicity assay, 5,000 HT-29 cells per well were seeded into a microtiter plate and cultured for 24 h at 37°C in a 5% CO2 atmosphere. Peptides were supplemented at concentrations ranging from 128 to 0.5 μg/ml, and the cells were incubated for another 20 h. Growth media were removed, 3-(4,5-dimethylthiazol-2-yl)-2,5-diphenyltetrazolium bromide (MTT) was added to all wells (220 μl per well at 0.5 mg/ml), the mixture was incubated for 4 h, and then the media were discarded. Cell viability was determined by visual inspection.

[6] = tested on: A. baumannii clinical isolate 1791; assay type: cell-based, Acinetobacter baumannii; settings: clinical isolate 1791, 24 h
Experimental: as §1, §2

[7] = tested on: A. baumannii clinical isolate S5; assay type: cell-based, Acinetobacter baumannii; settings: clinical isolate S5, 24 h
Experimental: as §1, §2

[8] = tested on: A. baumannii clinical isolate 1797; assay type: cell-based, Acinetobacter baumannii; settings: clinical isolate 1797, 24 h
Experimental: as §1, §2

[9] = tested on: A. baumannii clinical isolate 1790; assay type: cell-based, Acinetobacter baumannii; settings: clinical isolate 1790, 24 h
Experimental: as §1, §2

[10] = tested on: A. baumannii clinical isolate S3; assay type: cell-based, Acinetobacter baumannii; settings: clinical isolate S3, 24 h
Experimental: as §1, §2

[11] = tested on: A. baumannii clinical isolate 1788; assay type: cell-based, Acinetobacter baumannii; settings: clinical isolate 1788, 24 h
Experimental: as §1, §2

Staphylococcus aureus = assay type: cell-based; settings: 24 h
Experimental: as §1, §2

Bacillus subtilis = assay type: cell-based; settings: 24 h
Experimental: as §1, §2

Lactobacillus rhamnosus = assay type: cell-based; settings: 24 h
Experimental: as §1, §2

Acinetobacter baumannii = assay type: cell-based; settings: 24 h
Experimental: as §1, §2

Pseudomonas aeruginosa = assay type: cell-based; settings: 24 h
Experimental: as §1, §2

Klebsiella pneumoniae = assay type: cell-based; settings: 24 h
Experimental: as §1, §2

Enterococcus faecalis = assay type: cell-based; settings: 24 h
Experimental: as §1, §2

Streptococcus sobrinus = assay type: cell-based; settings: 24 h
Experimental: as §1, §2

Enterococcus faecium = assay type: cell-based; settings: 24 h
Experimental: as §1, §2

Enterobacter cloacae = assay type: cell-based; settings: 24 h
Experimental: as §1, §2

[12] = tested on: MDR A. baumannii strain AB5075; experiment: microbe, parasite or virus in culture; assay type: cell-based, Acinetobacter baumannii; settings: MDR strain AB5075, 24 h
Experimental: as §2

CC[C@@H](C)[C@@H](NC(=O)[C@@H](NC(=O)[C@H](CO)NC(=O)[C@H](Cc1ccccc1)NC(=O)[C@@H](CCCN)NC(=O)[C@H](CO)NC(=O)[C@H](CO)NC(=O)[C@@H](Cc1ccccc1)NC(=O)[C@@H](CO)NC(=O)[C@H](NC(=O)[C@@H](CCCN)NC(=O)[C@@H](Cc1ccccc1)NC(C)=O)[C@H](C)CC)C(C)C)C(=O)N[C@@H](CCCN)C(=O)O [4F, paenimucillin C] (Ac-[dF][dOrn][dI][dS][dF]SS[dOrn]FSV[dI][Orn]-OH)
MIC, toxicity assessment, C. albicans (C. albicans): 128 µg/mL (≈ 84.3 µM) | pore formation relative to Triton X-100 (A. baumannii [1]): ~ 75% | weight loss ([2]; 5 days, within normal range due to analgesia, two wounds): ≤ 5% | acute toxicity and change in behavior ([2]; observed 5 days): Neither acute toxicity nor any change in behavior was seen | wound sterilization after 1 day [3]: completely sterilized the wounds | bacterial burden throughout the 5-day study ([3]; P < 0.00001): 0 CFU | membrane depolarization relative to polymyxin (A. baumannii [4]): ~ 25% | MIC for A. baumannii clinical isolate 1795 [5]: 4 µg/mL | MIC for A. baumannii clinical isolate 1791 [6]: 2 µg/mL | MIC for A. baumannii clinical isolate S5 [7]: 4 µg/mL | MIC for A. baumannii clinical isolate 1797 [8]: 4 µg/mL | MIC for A. baumannii clinical isolate 1790 [9]: 4 µg/mL | MIC for A. baumannii clinical isolate S3 [10]: 4 µg/mL | MIC for A. baumannii clinical isolate 1788 [11]: 4 µg/mL | MIC Staphylococcus aureus (Staphylococcus aureus): 32 µg/mL (≈ 21.1 µM) | MIC Bacillus subtilis (Bacillus subtilis): 16 µg/mL (≈ 10.5 µM) | MIC Lactobacillus rhamnosus (Lactobacillus rhamnosus): 16 µg/mL (≈ 10.5 µM) | MIC Acinetobacter baumannii (Acinetobacter baumannii): 2 µg/mL (≈ 1.32 µM) | MIC Pseudomonas aeruginosa (Pseudomonas aeruginosa): 128 µg/mL (≈ 84.3 µM) | MIC Klebsiella pneumoniae (Klebsiella pneumoniae): 4 µg/mL (≈ 2.64 µM) | MIC Enterococcus faecalis (Enterococcus faecalis): 64 µg/mL (≈ 42.2 µM) | MIC Streptococcus sobrinus (Streptococcus sobrinus): 16 µg/mL (≈ 10.5 µM) | MIC Enterococcus faecium (Enterococcus faecium): 32 µg/mL (≈ 21.1 µM) | MIC Enterobacter cloacae (Enterobacter cloacae): 32 µg/mL (≈ 21.1 µM) | in vitro MIC, A. baumannii AB5075 [12]: 1 µg/mL
